In brackets after ≈: the same amount, converted by molar mass. Where two headings read alike, the source gives them in different places. A value given as a limit tells only on which side of the number the result lay.

The values below come from patent US20240009246A1, “CELLULAR-ANTIMICROBIAL COMBINATION COMPOSITION AND METHODS FOR TREATMENT OF BACTERIAL INFECTIONS OF JOINTS AND SOFT TISSUES” (priority 2021, published 2024).

Series [1] deals with Chondrocytes. Description: in vitro cytotoxic activity of antibiotics against horse chondrocytes. Type of series: cell-based. As to conditions: for IC50: Equus caballus, Chondrocyte, read-out: Concentration (equine IC50). The text has this:
(§1) Table 1 and 2 represent in vitro evaluation of the cytotoxic activity of different conventional antibiotics, as assessed for toxicity against dog cells (Table 1) or horse cells (Table 2). Similar toxicity profiles would also be anticipated for human cells.
(§2) The antibiotics with the highest IC50 values are considered non-cytotoxic, while those with lower values are considered more cytotoxic, and unsuitable for co-administration with activated MSC or activated iMSCs. For example, amikacin and enrofloxacin are more cytotoxic to joint cells (e.g. synovial cells and chondrocytes) than vancomycin, and should not be used for preparing the antibiotic plus activated MSCs formulations of uses herein, whereas vancomycin is one of the preferred antibiotics for these formulations for treating gram+ infections.
(§3) Table 2 represents and overview of equine IC50s of certain antibiotics of use herein

Series [2] deals with Synovial Cells. Description: in vitro cytotoxic activity of antibiotics against horse synovial cells. Format: cell-based. As to conditions: for IC50: Equus caballus, Synovial cell, read-out: Concentration (equine IC50).
Excerpt: as §1, §2, §3

Series [3] in a line: in vitro cytotoxic activity of antibiotics against dog synoviocytes. Format: cell-based. From the text: (§4) Table 1 and 2 represent in vitro evaluation of the cytotoxic activity of different conventional antibiotics, as assessed for toxicity against dog cells (Table 1) or horse cells (Table 2). Similar toxicity profiles would also be anticipated for human cells. The antibiotics with the highest IC50 values are considered non-cytotoxic, while those with lower values are considered more cytotoxic, and unsuitable for co-administration with activated MSC or activated iMSCs.

In series [4] the test system is CHONDROCYTES
Description: in vitro cytotoxic activity of antibiotics against dog chondrocytes. Format: cell-based. On the set-up: IC50 (cytotoxicity): unit not given beside the values.
Excerpt: as §4

Assay in series [5]: as above
Type of series: cell-based. Also noted: IC50 (cytotoxicity): unit not given beside the values.
Excerpt: as §4

The test system of series [6] is MRSA strain of Staphylococcus aureus. Description: equine model of septic arthritis (joint infected with MRSA), intra-articular treatment.
Description: In one example, a model of septic arthritis was studied. […] Certain objectives of this study were to determine if intra-articular (IA) administration of TLR activated MSCs (e.g. bone marrow derived MSCs) improve clinical outcomes and reduce bacterial burden and biomarkers of joint inflammation in an equine model of septic arthritis compared to conventional antimicrobial therapy alone. It was hypothesized that activated MSC therapy in combination with conventional antibiotic therapy could improve resolution of septic arthritis as assessed by lameness evaluation, joint circumference, imaging, and more rapid resolution of bacterial infection and inflammatory biomarkers.
In this example, four horses, each experimentally infected in one joint with MRSA strain of Staphylococcus aureus in one joint were set up for the study. Treatment started 24 h after introduction of the infective agent, two antibiotic only (control); two in TLR3 MSC plus antibiotic. All horses were treated with vancomycin (e.g. 100 mg) injected directly into the joint. The control 2 horses were just treated with vancomycin. The experimental 2 horses were (TLR MSC horses) were also treated with activated equine allogeneic MSC (e.g. 2×10^6) injected into joint immediately after vancomycin. These treatments were repeated three times at 3-day intervals for MSC horse, only twice for control horse (euthanized on day 7). The treatment responses were evaluated by cultured synovial fluid from joints (bacti counts, cell counts) and joint circumference and swelling. […] The experimental horses receiving the combined treatment were euthanized on day 14 to assess joint parameters and bacterial counts.
Synovial fluid was collected from each horse in the study, at the indicated time points, starting the day before infection (DO) and continuing until day 7. Control horses treated with vancomycin injections into the joint only, while TLR-MSC horse was treated with both activated MSC and vancomycin, both injected into the joint. The vancomycin dose was 100 mg per injection, while the dose of TLR3 activated MSC was 2×10^6 cells per injection, consisting of activated, allogeneic MSC obtained from bone marrow of unrelated healthy horses.
Synovial fluid samples from the two horses described in FIGS. 1A and 1B were also evaluated for their concentration of live MRSA bacteria. Collected samples were processed to disaggregate the bacteria in the synovial fluid, then the sample was serially diluted in PBS and then plated on quadrant plates with LB agar.
Skeletally mature horses, (male Quarter Horses, 3 years of age), deemed healthy by physical examination, bloodwork (complete blood count, serum biochemical panel), and without evidence of tarsal osteoarthritis determined radiographically were treatment recipients.

As to `CS(=O)(=O)c1ccc([C@@H](O)[C@@H](CF)NC(=O)C(Cl)Cl)cc1` [Florfenicol], the IC50 in series [1] (equine chondrocytes) was 2190 µg/mL (≈ 6.11 mM); in series [2] (equine synovial cells), 2960 µg/mL (≈ 8.25 mM).
For Neomycin, the “Concentration (equine IC50)” value in series [1] (equine chondrocytes) amounted to 821.9 µg/mL; in series [2] (equine synovial cells), 6274 µg/mL.
As to `NC[C@H]1O[C@H](O[C@H]2[C@H](O)[C@@H](O[C@H]3O[C@H](CO)[C@@H](O)[C@H](N)[C@H]3O)[C@H](N)C[C@@H]2N)[C@H](N)C[C@@H]1O` [Tobramycin], the IC50 was > 25000 µg/mL in series [1] (equine chondrocytes) and 9490 µg/mL (≈ 20.3 mM) in series [2] (equine synovial cells).
Take `CCN1CCN(c2cc3c(cc2F)c(=O)c(C(=O)O)cn3C2CC2)CC1` [Enrofloxacin]: the figures for the IC50 in series [1] (equine chondrocytes) and in series [3] (dog) were 4590 µg/mL (≈ 12.8 mM) and 1250 µg/mL (≈ 3.47 mM), respectively. Also, the “IC50 (cytotoxicity)” value in series [4] is given as “.078< × <1.56”.
In the case of Gentamicin, the “Concentration (equine IC50)” value in series [1] (equine chondrocytes) was found to be 708.3 µg/mL; in series [2] (equine synovial cells), 512.5 µg/mL.
The corresponding values for Ampicillin sulbactam are >25000 µg/mL and >25000 µg/mL.
With `Cc1nnc(SCC2=C(C(=O)O)N3C(=O)[C@@H](NC(=O)Cn4cnnn4)[C@H]3SC2)s1` [Cefazolin], the IC50 amounted to 3950 µg/mL (≈ 8.69 mM) in series [1] (equine chondrocytes), 1160 µg/mL (≈ 2.54 mM) in series [2] (equine synovial cells), 1480 µg/mL (≈ 3.26 mM) in series [3] (dog) and 1670 µg/mL (≈ 3.67 mM) in series [5] (dog).
As to `CC(C)(O/N=C(\C(=O)N[C@@H]1C(=O)N2C(C(=O)[O-])=C(C[n+]3ccccc3)CS[C@H]12)c1csc(N)n1)C(=O)O` [Ceftazidime], the IC50 in series [1] (equine chondrocytes) was found to be 3590 µg/mL (≈ 6.57 mM); in series [2] (equine synovial cells), 3360 µg/mL (≈ 6.15 mM); in series [3] (dog) it was 1620 µg/mL (≈ 2.97 mM); in series [5] (dog), 3160 µg/mL (≈ 5.78 mM).
`CC1(C)S[C@@H]2[C@H](NC(=O)Cc3ccccc3)C(=O)N2[C@H]1C(=O)[O-].[K+]` [Potassium penicillin]: the “Concentration (equine IC50)” value in series [1] (equine chondrocytes) was determined as 11610 µg/mL.
As for `CN[C@H](CC(C)C)C(=O)N[C@H]1C(=O)N[C@@H](CC(N)=O)C(=O)N[C@H]2C(=O)N[C@H]3C(=O)N[C@H](C(=O)N[C@H](C(=O)O)c4cc(O)cc(O)c4-c4cc3ccc4O)[C@H](O)c3ccc(c(Cl)c3)Oc3cc2cc(c3O[C@@H]2O[C@H](CO)[C@@H](O)[C@H](O)[C@H]2O[C@H]2C[C@](C)(N)[C@H](O)[C@H](C)O2)Oc2ccc(cc2Cl)[C@H]1O` [Vancomycin], the “overall outcome of joint infection” value in series [6] (control euthanized day 7, combined treatment day 14) is recorded as “uncontrolled joint infection”. The “circumference of the infected tarsocrural joint (effusion)” value in series [6] (infected joint vs uninfected joint) is “remained very swollen”. Moreover, in series [6] (over time after MRSA joint infection), the “body temperature (fever) course” value was “body temperature spikes were noted at two time points”. Further, in series [6] (spikes), the “body temperature in peaks” value is reported as “around 102 ° F”. The IC50 came out at 7310 µg/mL (≈ 5.04 mM) in series [1]; 7810 µg/mL (≈ 5.39 mM) in series [2]; 13800 µg/mL (≈ 9.5 mM) in series [3] (dog synoviocytes, read-out: IC50 (cytotoxicity)); 8640 µg/mL (≈ 5.97 mM) in series [5] (dog chondrocytes, read-out: IC50 (cytotoxicity)).
`CO/N=C(\C(=O)N[C@@H]1C(=O)N2C(C(=O)O)=C(CSC(=O)c3ccco3)CS[C@H]12)c1csc(N)n1` [Ceftiofur Sodium]: the IC50 in series [1] (equine chondrocytes) is 4270 µg/mL; in series [2] (equine synovial cells), > 25000 µg/mL.
Take `CC1(C)S[C@@H]2[C@H](NC(=O)[C@H](N)c3ccc(O)cc3)C(=O)N2[C@H]1C(=O)O` [Amoxicillin]: the IC50 in series [1] (equine chondrocytes) was 14000 µg/mL (≈ 38.3 mM); in series [2] (equine synovial cells), > 25000 µg/mL.
`C[C@H]1c2cccc(O)c2C(=O)C2=C(O)[C@]3(O)C(=O)C(C(N)=O)=C(O)[C@@H](N(C)C)[C@@H]3[C@@H](O)[C@@H]21` [Doxycycline]: the IC50 was found to be 1030 µg/mL (≈ 2.32 mM) in series [1] (equine chondrocytes) and 711 µg/mL (≈ 1.6 mM) in series [2] (equine synovial cells).
As for `C[C@@H](O)[C@H]1C(=O)N2C(C(=O)O)=C(SCCN=CN)C[C@H]12` [Imipenem], the IC50 in series [1] (equine chondrocytes) and in series [2] (equine synovial cells) was > 25000 µg/mL in each case.
Consider `NCC[C@H](O)C(=O)N[C@@H]1C[C@H](N)[C@@H](O[C@H]2O[C@H](CN)[C@@H](O)[C@H](O)[C@H]2O)[C@H](O)[C@H]1O[C@H]1O[C@H](CO)[C@@H](O)[C@H](N)[C@H]1O` [Amikacin], for which the IC50 was < 390 µg/mL in series [1] (equine chondrocytes), 799 µg/mL (≈ 1.36 mM) in series [2] (equine synovial cells), 2260 µg/mL (≈ 3.86 mM) in series [3] (dog) and 2740 µg/mL (≈ 4.68 mM) in series [5] (dog).
